Source: patent publication US4138491A, “Method for treating diabetes” (Daiichi Seiyaku Co., Ltd., priority 1976, dated 1979)

Key:
blood sugar level [1] = assay: Blood sugar lowering activity, fed AγKK (AYKK) mouse, hereditary diabetic; assay type: in vivo; conditions: fed AγKK mouse
Description: (§1) The compounds of the present invention were orally administered to normal rats, mice, dogs and hereditary diabetic mice(AYKK-mice), and the blood sugar lowering activity was examined.
(§2) Test animals which were used included animals which had been fasted for 24 hours to achieve an empty stomach, and animals which had been fed to achieve a full stomach without any restriction of diet. A sample aqueous solution or suspension was orally administered, and blood was sampled with the passage of time from the tail vein or the cephalic vein in order to determine the level of blood sugar by the glucose-oxidase method.

blood sugar level [2] = assay: Glucose tolerance test in AYKK mice; assay type: in vivo, AYKK mouse; conditions: 25 mg/kg PO; glucose 1 g/kg; sum of increments at 15, 30, 60, 90 min vs control; 100 = no improvement
Description: (§3) One index for the treatment of diabetes is to improve this glucose tolerance. The compound of the present invention was orally administered to normal rats, Streptozotocin-induced mildly diabetic rats and AYKK-mice, and thereafter glucose was administered intraperitoneally 1 hour later, and the glucose tolerance was examined. […] Further, a lowering of blood sugar in the glucose tolerance test using normal rats was examined with the passage of time, and the results obtained are given in Table 1 below.
(§4) A sample aqueous solution or suspension was orally administered to the test animals which had been fasted for 24 hours and one hour later glucose was intraperitoneally or subcutaneously administered to the test animals. Thereafter, blood was sampled from the tail vein with the passage of time in order to determine the blood sugar level by the glucose-oxidase method.
*5AYKK-mouse was obtained by mating a yellow mouse having symptoms of […]

serum lactate level = assay: Influence on serum lactate level, repeated administration for 4 days; assay type: in vivo, normal rat; conditions: Compound A 200 mg/kg/day (phenformin dose not given)
Description: The biguanide drugs heretofore used as a treatment for diabetes are said undesirably to cause acidosis due to an increase of serum lactate level when such drugs are repeatedly administered. The compounds of the present invention were repeatedly administered for 4 days to normal rats and the serum lactate level was determined every day to compare such with the administration of phenformine which is one example of a biguanide drug.
Compound A was repeatedly administered for 4 days to normal rats in a dosage of 200 mg/kg/day, and blood was sampled with the passage of time in order to determine the serum lactate level.

[3] = test system: blood platelet aggregation induced by collagen in rat platelet rich plasma; assay: Blood platelet aggregation inhibiting activity (collagen induced, in vitro); assay type: cell-based; conditions: read-out: Platelet Aggregation Inhibition Activity, ID50
Description: It is generally said that blood platelet aggregability is accelerated in a diabetes patient and that this secondarily causes blood vessel disorders. […] Thus, based on this the compounds of the present invention are expected to be useful in preventing and improving the secondary vasular lesions of diabetes mellitus.
Citrated rat blood was centrifuged in order to obtain platelet rich plasma, and to 0.4 ml of this plasma was added 50 μl of sample solution. To the resulting solution was added 50 μl of collagen suspension under stirring, and platelet aggregation reaction was determined according to the method of Born [Nature, Vol. 194, pp. 927 (1962)]. The concentration of the sample (ID50) which inhibits 50% of the aggregation reaction of the control without the test sample added is shown in Table 6 below.

blood sugar level [4] = assay: Blood sugar lowering activity, fed mouse; assay type: in vivo; conditions: 25 mg/kg PO
Description: as §1, §2

blood sugar level [5] = assay: Blood sugar lowering activity, fasted rat; assay type: in vivo
Description: as §1, §2

blood sugar level [6] = assay: Glucose tolerance test in streptozotocin-induced mildly diabetic rats; assay type: in vivo, rat (Wistar strain); conditions: 10 mg/kg PO; glucose 1 g/kg; sum of increments at 15, 30, 60, 90 min vs control; 100 = no improvement
Description: as §3, §4
*4The streptozotocin-induced mildly diabetic rats were produced by […]

blood sugar level [7] = assay: Glucose tolerance test in normal rats (oral compound, glucose load 1 hour later); assay type: in vivo, normal rat
Description: as §3, §4

blood sugar level [8] = assay: Blood sugar lowering activity, fasted beagle; assay type: in vivo, beagle dog; conditions: 25 mg/kg PO
Description: as §1, §2

blood insulin [9] = assay: Insulin releasing action, fed rats; assay type: in vivo, rat; conditions: 25 mg/kg iv
Description: (§5) Among the test animals fed rats were anesthetized by administration of pentobarbital (40 mg/kg, ip), and administered, intravenously with an isotonic sodium chloride solution of Compound A. An aqueous solution of the sample was orally administered to fed mice. In both cases blood was sampled from the tail vein with the passage of time, and the blood insulin was determined by the radioimmunoassay method of Morgen et al [Diabetes, Vol. 12, pp 115 (1963)]. At the same time blood sugar was also determined. […] The amount of insulin released in Table 4 was obtained by determining the difference between the blood insulin level at 5 points (5, 10, 20, 30, 40 minutes) during a 40 minute period after administration of the sample in the case of rats or 3 points (0.5, 1.0, 2.0 hours) during a 2 hour period after administration of the sample in the case of mice and the blood insulin level at 0 minute just before administration of the sample and then by summing up these differences.

Acute toxicity (rat) = conditions: in vivo, read-out: Acute Toxicity (rat) ID50
blood insulin [10] = assay: Insulin releasing action, fed mice; assay type: in vivo, mouse; conditions: fed mice, 25 mg/kg po
Description: as §5

c1ccc(C(CC2=NCCN2)c2ccccc2)cc1 [Compound A, 2-(2,2-diphenyl)ethylimidazoline]
Blood Sugar Level (control = 100), 1 Hr (blood sugar level [1]; 10 mg/kg PO): 72%
Blood Sugar Level (control = 100), 2 Hrs (blood sugar level [1]; 10 mg/kg PO): 71%
Blood Sugar Level (control = 100), 3 Hrs (blood sugar level [1]; 10 mg/kg PO): 62%
Blood Sugar Level (control = 100), 5 Hrs (blood sugar level [1]; 10 mg/kg PO): 63%
Blood Sugar Level (control = 100), 1 Hr (blood sugar level [1]; 25 mg/kg PO): 44%
Blood Sugar Level (control = 100), 2 Hrs (blood sugar level [1]; 25 mg/kg PO): 46%
Blood Sugar Level (control = 100), 3 Hrs (blood sugar level [1]; 25 mg/kg PO): 41%
Blood Sugar Level (control = 100), 5 Hrs (blood sugar level [1]; 25 mg/kg PO): 49%
Glucose Tolerance Improving Activity (blood sugar level [2]): 52.5%
Serum Lactate Level, 0 Day (serum lactate level; 0 Day): 0.993±0.051 μ mol/ml
Serum Lactate Level, After 1 Day (serum lactate level; After 1 Day): 1.386±0.073 μ mol/ml
Serum Lactate Level, After 4 Days (serum lactate level; After 4 Days): 1.125±0.113 μ mol/ml
IC50 [3]: 70 µM
Blood Sugar Level (control = 100), 1 Hr (blood sugar level [4]; 1 h): 54%
Blood Sugar Level (control = 100), 2 Hrs (blood sugar level [4]; 2 h): 67%
Blood Sugar Level (control = 100), 3 Hrs (blood sugar level [4]; 3 h): 65%
Blood Sugar Level (control = 100), 5 Hrs (blood sugar level [4]; 5 h): 76%
Blood Sugar Level (control = 100), 1 Hr (blood sugar level [5]; 10 mg/kg PO): 76%
Blood Sugar Level (control = 100), 2 Hrs (blood sugar level [5]; 10 mg/kg PO): 71%
Blood Sugar Level (control = 100), 3 Hrs (blood sugar level [5]; 10 mg/kg PO): 71%
Blood Sugar Level (control = 100), 5 Hrs (blood sugar level [5]; 10 mg/kg PO): 65%
Blood Sugar Level (control = 100), 1 Hr (blood sugar level [5]; 25 mg/kg PO): 72%
Blood Sugar Level (control = 100), 2 Hrs (blood sugar level [5]; 25 mg/kg PO): 67%
Blood Sugar Level (control = 100), 3 Hrs (blood sugar level [5]; 25 mg/kg PO): 57%
Blood Sugar Level (control = 100), 5 Hrs (blood sugar level [5]; 25 mg/kg PO): 67%
Glucose Tolerance Improving Activity (blood sugar level [6]): 25.2%
Glucose Tolerance Improving Activity (blood sugar level [7]; 10 mg/kg PO, glucose 2 g/kg, sum of increments at 15, 30, 60, 90 min vs control, 100 = no improvement): 15.7%
Blood Glucose Level, 0 min (blood sugar level [7]; 10 mg/kg, glucose 2 g/kg, 0 min): 72 ± 3 mg/dL
Blood Glucose Level, 15 min (blood sugar level [7]; 10 mg/kg, glucose 2 g/kg, 15 min): 83 ± 6 mg/dL
Blood Glucose Level, 30 min (blood sugar level [7]; 10 mg/kg, glucose 2 g/kg, 30 min): 87 ± 4 mg/dL
Blood Glucose Level, 60 min (blood sugar level [7]; 10 mg/kg, glucose 2 g/kg, 60 min): 76 ± 3 mg/dL
Blood Glucose Level, 90 min (blood sugar level [7]; 10 mg/kg, glucose 2 g/kg, 90 min): 68 ± 4 mg/dL
Blood Glucose Level, before glucose load (-60 min.) (blood sugar level [7]; 10 mg/kg, glucose 2 g/kg, -60 min): 84 ± 1 mg/dL
blood sugar level maintained after glucose load (blood sugar level [7]; normal rats, Table 1, in words): maintains the blood sugar level in the range of the fasting blood sugar level
rise in blood sugar level due to the glucose load (blood sugar level [7]; normal rats, Table 1, in words): scarcely any rise in blood sugar level
Blood Sugar Level (control = 100), 1 Hr (blood sugar level [8]; 1 h): 70%
Blood Sugar Level (control = 100), 2 Hrs (blood sugar level [8]; 2 h): 66%
Blood Sugar Level (control = 100), 3 Hrs (blood sugar level [8]; 3 h): 64%
Blood Sugar Level (blood insulin [9]; after 90 minutes, control = 100): 62%
Amount of Insulin Released (blood insulin [9]; sum of differences at 5, 10, 20, 30, 40 min): 250±15 μunit/ml
LD50 (Acute toxicity (rat)): 562 mg/kg
Blood Sugar Level (blood insulin [10]; after 2 hours, control = 100): 69.8%
Amount of Insulin Released (blood insulin [10]; sum of differences at 0.5, 1.0, 2.0 hours): 57±14.2 μunit/ml
